Test results reported in US20170052170A1, “NOVEL CELL LINES AND METHODS” (priority 2009, published 2017).

Target: T1, sweet taste receptor (human T1R2 and T1R3 subunits, mouse Gα15) (Homo sapiens, UniProt Q7RTX0+Q8TE23, C757R/I191V/I486V/R317G)
T1 construct: expressed in transfected cells; host or cells: HEK293T (ATCC CRL-11268)
T1 sequence (Q8TE23 20-839 I191V/R317G/I486V): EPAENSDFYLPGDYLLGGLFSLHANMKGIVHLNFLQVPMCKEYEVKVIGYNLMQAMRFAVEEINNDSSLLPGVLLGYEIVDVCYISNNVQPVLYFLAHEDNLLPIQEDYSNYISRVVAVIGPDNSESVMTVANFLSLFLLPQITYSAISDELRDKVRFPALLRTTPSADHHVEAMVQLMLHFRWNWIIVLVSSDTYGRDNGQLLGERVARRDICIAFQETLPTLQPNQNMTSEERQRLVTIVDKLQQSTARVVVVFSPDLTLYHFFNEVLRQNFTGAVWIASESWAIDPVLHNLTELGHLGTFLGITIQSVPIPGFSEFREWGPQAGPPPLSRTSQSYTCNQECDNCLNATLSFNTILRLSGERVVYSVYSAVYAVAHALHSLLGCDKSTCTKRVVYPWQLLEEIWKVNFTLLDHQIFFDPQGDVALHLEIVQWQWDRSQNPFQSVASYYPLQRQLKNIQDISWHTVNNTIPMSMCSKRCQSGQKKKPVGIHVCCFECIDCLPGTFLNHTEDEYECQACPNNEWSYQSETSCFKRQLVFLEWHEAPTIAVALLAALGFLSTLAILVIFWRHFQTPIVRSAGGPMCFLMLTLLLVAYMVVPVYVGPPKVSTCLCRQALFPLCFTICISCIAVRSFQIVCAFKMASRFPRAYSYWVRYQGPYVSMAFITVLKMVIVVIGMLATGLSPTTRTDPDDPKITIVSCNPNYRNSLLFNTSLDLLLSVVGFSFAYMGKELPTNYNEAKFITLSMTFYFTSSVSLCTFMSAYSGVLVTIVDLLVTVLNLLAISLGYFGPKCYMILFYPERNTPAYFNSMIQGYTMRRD
T1 sequence (Q7RTX0 21-852 C757R): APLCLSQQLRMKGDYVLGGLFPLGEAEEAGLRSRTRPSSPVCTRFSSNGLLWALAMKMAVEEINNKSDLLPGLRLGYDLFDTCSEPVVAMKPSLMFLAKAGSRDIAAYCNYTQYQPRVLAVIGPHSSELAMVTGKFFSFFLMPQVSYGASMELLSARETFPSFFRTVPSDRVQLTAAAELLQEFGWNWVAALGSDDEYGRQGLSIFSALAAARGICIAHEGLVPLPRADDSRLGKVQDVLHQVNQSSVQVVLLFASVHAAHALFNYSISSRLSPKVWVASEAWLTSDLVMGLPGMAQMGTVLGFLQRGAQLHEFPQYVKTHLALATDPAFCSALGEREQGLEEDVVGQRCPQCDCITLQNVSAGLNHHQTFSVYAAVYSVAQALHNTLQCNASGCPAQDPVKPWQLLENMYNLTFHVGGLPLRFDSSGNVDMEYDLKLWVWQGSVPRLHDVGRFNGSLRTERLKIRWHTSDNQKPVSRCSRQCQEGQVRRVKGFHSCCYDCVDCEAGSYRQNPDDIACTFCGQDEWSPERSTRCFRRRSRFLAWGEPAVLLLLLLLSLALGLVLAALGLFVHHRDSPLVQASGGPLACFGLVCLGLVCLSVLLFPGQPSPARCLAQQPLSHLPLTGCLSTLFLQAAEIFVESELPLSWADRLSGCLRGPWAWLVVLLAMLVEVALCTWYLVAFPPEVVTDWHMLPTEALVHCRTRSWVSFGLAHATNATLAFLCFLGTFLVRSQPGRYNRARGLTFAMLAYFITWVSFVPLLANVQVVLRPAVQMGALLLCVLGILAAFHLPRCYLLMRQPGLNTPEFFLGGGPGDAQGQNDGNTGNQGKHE
Experiment: sweet taste receptor-expressing cell-based assay (calcium flux)
Conditions: natural, high intensity and artificial sweeteners; FIGS. 23 and 24
From the text: FIG. 24 (A-C) is series of line graphs representing the data obtained in various dose response experiments using sweet taste receptor agonists in a sweet taste receptor-expressing cell-based assay (using cells of this invention). (A) The responses of a sweet taste receptor-expressing cell line to natural caloric sweeteners were plotted as a function of the agonist concentration. (B) Dose response curves of common artificial sweeteners in a sweet taste receptor-expressing cell-based assay. (C) Dose response curves of natural high-intensity sweeteners in a sweet taste receptor-expressing cell-based assay.
FIG. 25 is a series of representative response traces generated after performing a sweet taste receptor-expressing cell-based assay using cells of this invention.
To identify a taste receptor modulator (e.g., umami taste receptor modulator or sweet taste receptor modulator), one exposes a cell or cell line of the invention to a test compound under conditions in which the taste receptor (e.g., umami taste receptor or sweet taste receptor) would be expected to be functional and then detects a statistically significant change (e.g., p<0.05) in taste receptor activity (e.g., umami taste receptor activity or sweet taste receptor activity) compared to a suitable control, e.g., cells that are not exposed to the test compound. Positive and/or negative controls using known agonists or antagonists and/or cells expressing different combinations of taste receptor subunits (e.g., umami taste receptor subunits or sweet taste receptor subunits) (and optionally a G protein) may also be used. In some embodiments, the taste receptor activity (e.g., umami taste receptor activity or sweet taste receptor activity) to be detected and/or measured is calcium release from the endoplasmic reticulum as a result of the down stream signaling events following taste receptor activation (e.g., umami taste receptor activation or sweet taste receptor activation). One of ordinary skill in the art would understand that various assay parameters may be optimized, e.g., signal to noise ratio.
See, e.g., FIGS. 23 and 24.

O=C(CO)[C@@H](O)[C@H](O)[C@H](O)CO [fructose]
response of sweet taste receptor cells and cell lines to known classes of sweet compounds: respond
